Data reported in paper PMC13626384 (Journal of medicinal chemistry, 2025).
Like-named read-outs stand apart in the source and are kept apart here.

What was measured:
D283-med cell line = experiment: Cytotoxicity against D283-med cells; assay type: cell-based, human
SF188 cell line = experiment: Cytotoxicity against SF188 cells; assay type: cell-based, human
H460 cell line = experiment: Cytotoxicity against H460 cells; assay type: cell-based; conditions: read-out: H460 IC50; non-small cell lung cancer cell line
[1] = PAMPA-BBB permeability assay; conditions: PAMPA-BBB
[2] = molecular target: human immunoproteasome (i20S) β5 (Homo sapiens, UniProt P20618+P28062); experiment: Proteasome subunit inhibition, i20S β5; assay type: biochemical; conditions: read-out: i20S β5 IC50 ± SD; read 60 to 90 minutes after start
[3] = molecular target: human immunoproteasome (i20S) β2 (Homo sapiens, UniProt P40306+P49720); experiment: Proteasome subunit inhibition, i20S β2; assay type: biochemical; conditions: read-out: i20S β2 IC50 ± SD; read 60 to 90 minutes after start
[4] = molecular target: human immunoproteasome (i20S) β1 (Homo sapiens, UniProt P28065+P40306); experiment: Proteasome subunit inhibition, i20S β1; assay type: biochemical; conditions: read-out: i20S β1 IC50 ± SD; read 60 to 90 minutes after start
[5] = Caco-2 cell permeability and efflux; assay type: in vitro ADME, human; conditions: human, Caco-2
[6] = read-out: D283-med IC50, medulloblastoma cell line
[7] = read-out: SF188 IC50, glioblastoma cell line

| Molecule | IC50 (D283-med cell line; [6]) | IC50 (SF188 cell line; [7]) | IC50 (H460 cell line) | other results |
| --- | --- | --- | --- | --- |
| CC(C)C[C@H](NC(=O)[C@@H]1Cc2c(F)c(F)c(c(F)c2F)[S+]([O-])c2cccc(c2)CC(=O)N[C@@H](C(C)(C)O)C(=O)N1)C(=O)[C@@]1(C)CO1 (stereo partly drawn) [Compound 23, (5S,8S)-3^2,3^3,3^5,3^6-Tetrafluoro-8-(2-hydroxypropan-2-yl)-N-((S)-4-methyl-1-((R)-2-methyloxiran-2-yl)-1-oxopentan-2-yl)-7,10-dioxo-2-thia-6,9-diaza-1(1,3),3(1,4)-dibenzenacycloundecaphane-5-carboxamide 2-oxide] | 176 ± 2 nM | 205 ± 21 nM | 1640 ± 87 nM |  |
| CC(C)C[C@H](NC(=O)[C@@H]1Cc2c(F)c(F)c(c(F)c2F)S(=O)(=O)c2cccc(c2)CC(=O)N[C@@H](C(C)(C)O)C(=O)N1)C(=O)[C@@]1(C)CO1 [Compound 24, (5S,8S)-3^2,3^3,3^5,3^6-Tetrafluoro-8-(2-hydroxypropan-2-yl)-N-((S)-4-methyl-1-((R)-2-methyloxiran-2-yl)-1-oxopentan-2-yl)-7,10-dioxo-2-thia-6,9-diaza-1(1,3),3(1,4)-dibenzenacycloundecaphane-5-carboxamide 2,2-dioxide] | 54 ± 2 nM | 100 ± 7 nM | 410 ± 59 nM | % Recovery [1]: 79%; Mean Permeability [1]: 2.06 10^−6 cm/sec |
| CC(C)CC(NC(=O)C1Cc2c(F)c(F)c(c(F)c2F)S(=O)(=O)c2cccc(c2)CC(=O)NC(C(C)C)CC(=O)N1)C(=O)C1(C)CO1 [Compound 25, (5S,9S)-3^2,3^3,3^5,3^6-Tetrafluoro-9-isopropyl-N-((S)-4-methyl-1-((R)-2-methyloxiran-2-yl)-1-oxopentan-2-yl)-7,11-dioxo-2-thia-6,10-diaza-1(1,3),3(1,4)-dibenzenacyclododecaphane-5-carboxamide 2,2-dioxide] | > 15000 nM | > 15000 nM | > 15000 nM |  |
| CC(C)C[C@H](NC(=O)[C@@H]1Cc2c(F)c(F)c(c(F)c2F)S(=O)(=O)c2cccc(c2)CC(=O)N[C@@H](C(C)C)CC(=O)N1)C(=O)[C@@]1(C)CO1 [Compound 26, (5S,9R)-3^2,3^3,3^5,3^6-Tetrafluoro-9-isopropyl-N-((S)-4-methyl-1-((R)-2-methyloxiran-2-yl)-1-oxopentan-2-yl)-7,11-dioxo-2-thia-6,10-diaza-1(1,3),3(1,4)-dibenzenacyclododecaphane-5-carboxamide 2,2-dioxide] | 472 ± 36 nM | 673 ± 50 nM | 2360 nM |  |
| CC(C)C[C@H](NC(=O)[C@@H]1Cc2c(F)c(F)c(c(F)c2F)S(=O)(=O)c2cccc(c2)CC(=O)N[C@@H]([C@H](C)O)C(=O)N1)C(=O)[C@@]1(C)CO1 [Compound 27, (5S,8S)-3^2,3^3,3^5,3^6-Tetrafluoro-8-((S)-1-hydroxyethyl)-N-((S)-4-methyl-1-((R)-2-methyloxiran-2-yl)-1-oxopentan-2-yl)-7,10-dioxo-2-thia-6,9-diaza-1(1,3),3(1,4)-dibenzenacycloundecaphane-5-carboxamide 2,2-dioxide] | 28 ± 10 nM | 72 ± 10 nM | 360 ± 56 nM | % Recovery [1]: 88%; Mean Permeability [1]: 1.40 10^−6 cm/sec |
| CC(=O)O[C@@H](C)[C@@H]1NC(=O)Cc2cccc(c2)S(=O)(=O)c2c(F)c(F)c(c(F)c2F)C[C@@H](C(=O)N[C@@H](CC(C)C)C(=O)[C@@]2(C)CO2)NC1=O [Compound 28, (S)-1-((5S,8S)-3^2,3^3,3^5,3^6-Tetrafluoro-5-(((S)-4-methyl-1-((R)-2-methyloxiran-2-yl)-1-oxopentan-2-yl)carbamoyl)-2,2-dioxido-7,10-dioxo-2-thia-6,9-diaza-1(1,3),3(1,4)-dibenzenacycloundecaphane-8-yl)ethyl acetate] | 44 ± 6 nM | 148 ± 35 nM | 549 ± 21 nM |  |
| CC(C)C[C@H](NC(=O)[C@@H]1Cc2c(F)c(F)c(c(F)c2F)S(=O)(=O)c2ccc(cc2)CCC(=O)N[C@@H](C(C)C)C(=O)N1)C(=O)[C@@]1(C)CO1 [Compound 29, (5S,8S)-3^2,3^3,3^5,3^6-Tetrafluoro-8-isopropyl-N-((S)-4-methyl-1-((R)-2-methyloxiran-2-yl)-1-oxopentan-2-yl)-7,10-dioxo-2-thia-6,9-diaza-1,3(1,4)-dibenzenacyclododecaphane-5-carboxamide 2,2-dioxide] | 146 ± 29 nM | 150 ± 12 nM | 470 ± 154 nM |  |
| CC(C)C[C@H](NC(=O)[C@@H]1Cc2c(F)c(F)c(c(F)c2F)S(=O)(=O)c2cccc(c2)CC(=O)NCC(=O)N1)C(=O)[C@@]1(C)CO1 [Compound 32, (S)-32,33,35,36-Tetrafluoro-N-((S)-4-methyl-1-((R)-2-methyloxiran-2-yl)-1-oxopentan-2-yl)-7,10-dioxo-2-thia-6,9-diaza-1(1,3),3(1,4)-dibenzenacycloundecaphane-5-carboxamide 2,2-dioxide] | 563 ± 46 nM | 7230 nM | 4540 nM |  |
| CC(C)C[C@H](NC(=O)[C@@H]1Cc2ccc(cc2)OCCCCCC(=O)N[C@@H](C(C)C)C(=O)N1)C(=O)[C@@]1(C)CO1 [Compound 33, (10S,13S)-10-Isopropyl-N-((S)-4-methyl-1-((R)-2-methyloxiran-2-yl)-1-oxopentan-2-yl)-8,11-dioxo-2-oxa-9,12-diaza-1(1,4)-benzenacyclotetradecaphane-13-carboxamide] | 10.1 ± 2.1 nM | 12.2 ± 0.4 nM | 53 ± 15 nM | IC50 [2]: 32.9 ± 5.9 nM; IC50 [3]: 67.4 ± 8.4 nM; IC50 [4]: 81.7 ± 8.6 nM; % Recovery [1]: 87%; Mean Permeability [1]: 1.49 10^−6 cm/sec |
| CC(C)C[C@H](NC(=O)[C@@H]1Cc2ccc(cc2)SCCCCCC(=O)NC(C)(C)C(=O)N1)C(=O)[C@@]1(C)CO1 [Compound 36, (S)-10,10-Dimethyl-N-((S)-4-methyl-1-((R)-2-methyloxiran-2-yl)-1-oxopentan-2-yl)-8,11-dioxo-2-thia-9,12-diaza-1(1,4)-benzenacyclotetradecaphane-13-carboxamide] | 1440 nM | 2260 nM | 2330 nM |  |
| CC(C)C[C@@H](NC(=O)[C@@H]1Cc2ccc(cc2)S(=O)(=O)CCCCCC(=O)NC(C)(C)C(=O)N1)C(=O)[C@@]1(C)CO1 [Compound 37, (S)-10,10-Dimethyl-N-((R)-4-methyl-1-((R)-2-methyloxiran-2-yl)-1-oxopentan-2-yl)-8,11-dioxo-2-thia-9,12-diaza-1(1,4)-benzenacyclotetradecaphane-13-carboxamide 2,2-dioxide] | 590 ± 20 nM | 4420 nM | 1720 nM |  |
| CC(C)C[C@H](NC(=O)[C@@H]1Cc2ccc(cc2)S(=O)(=O)CCCCCC(=O)NC(C(C)C)C(=O)N1)C(=O)[C@@]1(C)CO1 (stereo partly drawn) [Compound 38, (13S)-10-Isopropyl-N-((S)-4-methyl-1-((R)-2-methyloxiran-2-yl)-1-oxopentan-2-yl)-8,11-dioxo-2-thia-9,12-diaza-1(1,4)-benzenacyclotetradecaphane-13-carboxamide 2,2-dioxide] | 16 ± 2 nM | 157 ± 45 nM | 287 ± 42 nM | % Recovery [1]: 99%; Mean Permeability [1]: 0.27 10^−6 cm/sec |
| C[C@H]1O[C@@H](O[C@H]2[C@@H](O)C[C@H](O[C@H]3[C@@H](O)C[C@H](O[C@H]4CC[C@@]5(C)[C@H](CC[C@@H]6[C@@H]5C[C@@H](O)[C@]5(C)[C@@H](C7=CC(=O)OC7)CC[C@]65O)C4)O[C@@H]3C)O[C@@H]2C)C[C@H](O)[C@@H]1O [Digoxin, reference compound] |  |  |  | Papp A→B [5]: 1.3 ×10⁻⁶ cm/s; Papp B→A [5]: 13 ×10⁻⁶ cm/s |
| Cn1cc(CNCC2CCN(c3ncc(C(=O)NO)cn3)CC2)c2ccccc21 [Quisinostat, reference compound] | 37 ± 2 nM | 43 ± 2 nM | 30 ± 3 nM | IC50 (D283-med cell line; Homo sapiens, D283 Med, read-out: D283-med IC50, medulloblastoma cell line): 30 to 43 nM; IC50 (SF188 cell line; Homo sapiens, SF-188, read-out: SF188 IC50, glioblastoma cell line): 30 to 43 nM |
| (5S,8S)-3^2,3^3,3^5,3^6-Tetrafluoro-8-isopropyl-9-methyl-N-((S)-4-methyl-1-((R)-2-methyloxiran-2-yl)-1-oxopentan-2-yl)-7,10-dioxo-2-thia-6,9-diaza-1(1,3),3(1,4)-dibenzenacycloundecaphane-5-carboxamide 2,2-dioxide [Compound 30] | 1470 nM | 1680 nM | 3200 nM |  |
| (5S,8S)-32,33,35,36-Tetrafluoro-8-isopropyl-N-((S)-4-methyl-1-((R)-2-methyloxiran-2-yl)-1-oxopentan-2-yl)-7,10-dioxo-2-thia-6,9-diaza-1,3(1,4)-dibenzenacyclododecaphane-5-carboxamide [Compound 18] | 232 ± 12 nM | 239 ± 10 nM | 1080 nM |  |
| (S)-10,10-Dimethyl-N-((S)-4-methyl-1-((R)-2-methyloxiran-2-yl)-1-oxopentan-2-yl)-8,11-dioxo-2-oxa-9,12-diaza-1(1,4)-benzenacyclotetradecaphane-13-carboxamide [Compound 34] | 2080 nM | 2910 nM | 4520 nM |  |
